Source: patent publication US20070004692A1, “Preparations and therapy of intrathecal inflammatory disease” (priority 2005, published 2007)
Converted amounts (≈) assume the structure as drawn. Marks after values point to notes of the source that are not given here.

Columns and labels:
[1] = physchem; details: water
[2] = Physical stability of aqueous corticosteroid solutions (ethanol stock added to saline or x-ray contrast agent)
[3] = Solubility in water at room temperature
[4] = Blood glucose with glucose oxidase reagent strips in the MCAO animals of Example 5; details: intrathecal 0.012 mg/kg; venous blood preoperatively, prior to, 2 h and 24 h after administration; versus saline control (FIG. 1)
Method: In the animals used in ‘Example 5’ additionally blood glucose was measured with glucose oxidase reagent strips (Accu-Chek® Sensor, Roche Diagnostik GmbH, Mannheim, Germany) using a drop of venous blood preoperatively, immediately prior to, at 2 hours and at 24 hours after Triamcinolone acetonide administration.

[5] = tested on: focal cerebral ischemia (middle cerebral artery occlusion); assay: Focal cerebral ischemia, intraluminal suture occlusion of the middle cerebral artery (MCAO); relative infarction volume by TTC staining; type: in vivo; details: for Relative infarction volume expressed as percent of the total brain volume of the right hemisphere, mean: 0.012 mg/kg intrathecal single dose (example 3), control 18.08, n 15
[6] = Isovist 300, time after mixing 0

Structure (SMILES)	solubility [1]	Physical stability (appearance) ([2]; Isovist 300, 2 h after mixing)	Physical stability (appearance) ([2]; Isovist 300, 48 h after mixing)	Physical stability (appearance) [2, 6]	Physical stability (appearance) ([2]; Saline, 2 h after mixing)	Physical stability (appearance) ([2]; Saline, time after mixing 0)	Physical stability (appearance) ([2]; Ultravist 300, 2 h after mixing)	Physical stability (appearance) ([2]; Ultravist 300, 48 h after mixing)	Physical stability (appearance) ([2]; Ultravist 300, time after mixing 0)	solubility [3]	Physical stability (appearance) ([2]; Ultravist 370, 2 h after mixing)	Physical stability (appearance) ([2]; Ultravist 370, 48 h after mixing)	Physical stability (appearance) ([2]; Ultravist 370, time after mixing 0)	effect on blood glucose [4]	Relative infarction volume expressed as percent of the total brain volume of the right hemisphere, mean ([5]; drug administration 30 Min after MCAO)	Relative infarction volume expressed as percent of the total brain volume of the right hemisphere, mean ([5]; drug administration 1 h after MCAO)	Relative infarction volume expressed as percent of the total brain volume of the right hemisphere, mean ([5]; drug administration 2 h after MCAO)	Relative infarction volume expressed as percent of the total brain volume of the right hemisphere, mean ([5]; drug administration 4 h after MCAO)	reduction in infarction size compared to controls ([5]; 0.012 mg/kg intrathecally, preparation of example 2, 30 minutes after MCA occlusion)	infarction volume (percent of the total brain volume of the right hemisphere) ([5]; 0.012 mg/kg intrathecally, preparation of example 2, 30 minutes after MCA occlusion, sacrificed 24 h after MCAO, controls 20.0±8.0%, p=0.02)
C[C@@H]1C[C@H]2[C@@H]3CCC4=CC(=O)C=C[C@]4(C)[C@@]3(F)[C@@H](O)C[C@]2(C)[C@@]1(O)C(=O)CO [Dexamethasone, dexamethasone]	~85 µg/mL (≈ 217 µM)	clear	clear	clear	clear	clear	clear	clear	clear	–	–	–	–	–	–	–	–	–	–	–
CC1(C)O[C@@H]2C[C@H]3[C@@H]4CCC5=CC(=O)C=C[C@]5(C)[C@@]4(F)[C@@H](O)C[C@]3(C)[C@]2(C(=O)CO)O1 [Triamcinolone acetonide]	–	clear	fine particles	clear	–	clear (?)	–	–	–	~20 µg/mL (≈ 46 µM)	clear	clear	clear	does not cause any additional effect	12.86* percent	9.68** percent	10.57* percent	9.05** percent	33%	13.4±6.5%
